# Laboratory results taken from paper PMC6986443, “T‐495, a novel low cooperative M1 receptor positive allosteric modulator, improves memory deficits associated with cholinergic dysfunction and is characterized by low gastrointestinal side effect risk” (Pharmacology Research & Perspectives, 2020).
# Read-outs that look alike come from different tables or passages of the source.
# Assays:
# [1] = Concentrations in rat plasma and brain (IP1 study); type: in vivo; conditions: Long-Evans, po, mean ± SD; for Kp at 2 h: brain/plasma, read-out: Kp (brain‐to‐plasma concentration ratio)
# Method: (§1) Eight‐week‐old Long‐Evans rats, 8‐ to 9‐week‐old C57BL/6J mice, and 22‐ or 29‐week‐old M1R KO mice and their WT littermates were used in this study. On the day of the experiment, animals were placed in individual cages and acclimated for more than 1 hour. A test compound or vehicle was administered 2 hours before the animals were sacrificed. […] LiCl (10 mmol/kg, s.c.) was injected 1 hour before sacrifice. In the repeated administration study, a test compound was administered to mice once daily for 13 days; on day 14, animals were treated with a test compound and LiCl (10 mmol/kg, s.c.) and then sacrificed. Animals were killed by decapitation, and blood was collected into tubes containing ethylenediaminetetraacetic acid for pharmacokinetic analysis; brains were quickly dissected, frozen on dry ice, and stored at −80°C until analysis. Brain tissues were homogenized in 19 (for rat tissues) or 39 (for mouse tissue) volumes of homogenization buffer (10 mmol/L HEPES pH 7.4, 50 mmol/L LiCl, 150 mmol/L NaCl, and 1% Triton X‐100), and the homogenate was incubated on a rotator for 1 hour, followed by centrifugation. The supernatant was diluted with 39 (for rat tissues) or 19 (for mouse tissues) volumes of dilution buffer (10 mmol/L HEPES pH 7.4, 50 mmol/L LiCl, and 150 mmol/L NaCl). IP1 and protein concentrations in the diluted supernatant were measured using IP‐One HTRF assay kit (Cisbio Bioassays) and BCA Protein Assay Kit (Thermo Fisher Scientific Inc), respectively, according to the manufacturers’ instructions. IP1 production was expressed as the ratio of IP1 to protein concentrations.
# [2] = Concentrations in mouse plasma and brain after single and repeated treatment; type: in vivo; conditions: C57BL/6J, oral, mean ± SD
# Method: as §1
# [3] = test system: ileum segment of ICR mice; assay: Spontaneous ileum contraction; set-up: species or system mouse; conditions: 0.01, 0.1, and 1 μmol/L applied cumulatively
# Method: ICR mice were fasted overnight and sacrificed by decapitation, and the ileum was removed and the luminal contents were gently flushed out with ice‐cold modified Krebs buffer (NaCl, 120.7 mmol/L; KCl, 5.9 mmol/L; NaHCO3, 15.5 mmol/L; MgCl2, 1.2 mmol/L; NaH2PO4, 1.2 mmol/L; CaCl2, 2.5 mmol/L; glucose, 11.5 mmol/L). The ileum segment (approximately 5 mm in length) was suspended in a 10‐mL organ bath filled with oxygenated (95% O2 and 5% CO2) modified Krebs buffer at 37°C. One end of the ileum segment was tied to a hook and the other end was secured with a silk thread to an isometric force transducer (MLT050/A, ADInstruments) connected to a data acquisition system (PowerLab 8/30 ML870 and Octal Bridge Amp ML228, ADInstruments). The ileum segment was subjected to an initial tension of 0.3 to 0.4 g and was allowed to equilibrate for at least 30 minutes. After the equilibration period, spontaneous contractions were measured for 3 minutes (pretreatment) and then increasing concentrations of a test compound (0.01, 0.1, and 1 μmol/L) were cumulatively applied at 3‐minute intervals. LabChart software (ADInstruments) was used to analyze the spontaneous contractions. The mean amplitude of spontaneous contractions at each concentration was normalized to that observed at pretreatment.
# [4] = test system: SD rats; conditions: rat, in vivo; for Convulsion / Fasciculation / Lacrimation / Loose or mucous stool or diarrhea / Miosis / Salivation: SD
# Method: Seven‐ or 8‐week‐old SD rats were individually placed into observation cages. After an acclimation period of at least 1 hour, a test compound was administered to the rats. […] Cholinergic side effects, including diarrhea, lacrimation, salivation, miosis, and fasciculation, were assessed blindly, as described previously,27 and convulsion was scored using a modified Racine scale,37 as follows: stage 0, normal; stage 1, immobility; stage 2, forelimb and/or tail extension and rigid posture; stage 3, repetitive movements, head nodding, and gnawing; stage 4, rearing and falling; stage 5, continuous rearing and falling; stage 6, severe tonic‐clonic seizure with loss of postural control; and stage 7, death in the first 2 hours.
structure (smiles),measurement,setting,value
"Cc1ccc(Cc2cc3c(=O)n([C@H]4CCCC[C@@H]4O)cnc3c3ccccc23)cn1 [MK‐7622, 3‐((1S,2S)‐2‐hydroxycyclohexyl)‐6‐((6‐methylpyridin‐3‐yl)methyl)benzo[h]quinazolin‐4(3H)‐one, reference compound]",concentration at 2 h,"[1]; brain (hippocampus), rat hippocampus, 1 mg/kg p.o., read-out: Brain concentration",14.5 ± 6.3 ng/g
same,concentration at 2 h,"[1]; brain (hippocampus), rat hippocampus, 3 mg/kg p.o., read-out: Brain concentration",39.3 ± 5.6 ng/g
same,concentration at 2 h,"[1]; brain (hippocampus), rat hippocampus, 10 mg/kg p.o., read-out: Brain concentration",220 ± 72.2 ng/g
same,Kp at 2 h,"[1]; rat, 1 mg/kg p.o.",0.14 ± 0.04
same,Kp at 2 h,"[1]; rat, 3 mg/kg p.o.",0.19 ± 0.04
same,Kp at 2 h,"[1]; rat, 10 mg/kg p.o.",0.23 ± 0.02
same,concentration at 2 h,"[1]; plasma, rat, 1 mg/kg p.o., n = 6, read-out: Plasma concentration",99.2 ng/mL
same,concentration at 2 h,"[1]; plasma, rat, 3 mg/kg p.o., n = 6, read-out: Plasma concentration",218 ± 42.9 ng/mL
same,concentration at 2 h,"[1]; plasma, rat, 10 mg/kg p.o., n = 6, read-out: Plasma concentration",944 ± 246 ng/mL
same,concentration at 2 h,"[2]; brain (hippocampus), 10 mg/kg, mouse hippocampus, pretreated with the compound 10 mg/kg p.o. for 13 days, 10 mg/kg p.o., read-out: Brain concentration",126 ± 28.7 ng/g
same,concentration at 2 h,"[2]; brain (hippocampus), 10 mg/kg, mouse hippocampus, vehicle-pretreated, 10 mg/kg p.o., read-out: Brain concentration",137 ± 23.1 ng/g
same,concentration at 2 h,"[2]; brain (hippocampus), 30 mg/kg, mouse hippocampus, pretreated with the compound 10 mg/kg p.o. for 13 days, 30 mg/kg p.o., read-out: Brain concentration",813 ± 262 ng/g
same,concentration at 2 h,"[2]; brain (hippocampus), 30 mg/kg, mouse hippocampus, vehicle-pretreated, 30 mg/kg p.o., read-out: Brain concentration",787 ± 284 ng/g
same,concentration at 2 h,"[2]; plasma, 10 mg/kg, pretreated with the compound 10 mg/kg p.o. for 13 days, 10 mg/kg p.o., read-out: Plasma concentration",490 ± 86.4 ng/mL
same,concentration at 2 h,"[2]; plasma, 10 mg/kg, vehicle-pretreated, 10 mg/kg p.o., n = 10, read-out: Plasma concentration",624 ± 61.4 ng/mL
same,concentration at 2 h,"[2]; plasma, 30 mg/kg, pretreated with the compound 10 mg/kg p.o. for 13 days, 30 mg/kg p.o., read-out: Plasma concentration",2430 ± 550 ng/mL
same,concentration at 2 h,"[2]; plasma, 30 mg/kg, vehicle-pretreated, 30 mg/kg p.o., n = 10, read-out: Plasma concentration",2340 ± 518 ng/mL
same,concentration at which spontaneous ileum contraction was increased,[3],≤ 0.01 µmol/L
same,Convulsion,"[4]; po, 3 mg/kg",0/6
same,Fasciculation,"[4]; po, 3 mg/kg",0/6
same,Lacrimation,"[4]; po, 3 mg/kg",0/6
same,Loose or mucous stool or diarrhea,"[4]; po, 3 mg/kg",2/6
same,Miosis,"[4]; po, 3 mg/kg",0/6
same,Salivation,"[4]; po, 3 mg/kg",0/6
same,Convulsion,"[4]; po, 10 mg/kg",0/6
same,Fasciculation,"[4]; po, 10 mg/kg",0/6
same,Lacrimation,"[4]; po, 10 mg/kg",0/6
same,Loose or mucous stool or diarrhea,"[4]; po, 10 mg/kg",3/6
same,Miosis,"[4]; po, 10 mg/kg",0/6
same,Salivation,"[4]; po, 10 mg/kg",0/6
same,Convulsion,"[4]; po, 30 mg/kg",0/6
same,Fasciculation,"[4]; po, 30 mg/kg",0/6
same,Lacrimation,"[4]; po, 30 mg/kg",0/6
same,Loose or mucous stool or diarrhea,"[4]; po, 30 mg/kg",6/6
same,Miosis,"[4]; po, 30 mg/kg",0/6
same,Salivation,"[4]; po, 30 mg/kg",0/6
same,"dose difference between memory improvement and induction of cholinergic side effects, including diarrhea",[4],onefold
same,diarrhea score,"[4]; po, 3 mg/kg",tended to increase
